Data taken from US8513027B2, “Method of identifying an inhibitor of the prostanoid EP4 receptor” (Asterand UK Acquisition Limited, priority 1998, dated 2013).
One block for each compound: values may come before it.

Experiments:
[1] = test system: human cerebral artery rings; experiment: tone of isolated human cerebral artery rings exposed to prostanoid receptor agonists; format: cell-based; details: for effect on smaller diameter cerebral artery rings contracted with phenylephrine, TP receptors blocked: phenylephrine 1 μM, GR32191 1 μM in bathing solution
Protocol: Sections of cerebral artery were removed from different regions of preparations of human cerebral vasculature containing an intact circle of Willis. Intact rings of this cerebral artery, 2-3 mm in length, were set up under isometric conditions in 10 ml organ baths under an initial tension of 1 g. All tissues were maintained at 37° C. and gassed constantly with 95% O2/5% CO2. Following a 90 min equilibration period all tissues were challenged with phenylephrine (1 μM), to determine tissue viability. Once a stable contraction had been obtained, tissues were exposed to a range of prostanoid receptor agonists, in the absence or presence of receptor antagonists, to determine the functional role of prostanoid receptors in maintaining arterial tone.

EP4 receptors = molecular target: T1, EP4 receptors (Sus scrofa, UniProt I3LLK4); details: blockade of EP4 receptors; cited from earlier work
T1 construct: providing a natural source of the receptors, such as piglet saphenous vein; from tissue; host or cells: piglet saphenous vein rings
T1 sequence (I3LLK4 1-489): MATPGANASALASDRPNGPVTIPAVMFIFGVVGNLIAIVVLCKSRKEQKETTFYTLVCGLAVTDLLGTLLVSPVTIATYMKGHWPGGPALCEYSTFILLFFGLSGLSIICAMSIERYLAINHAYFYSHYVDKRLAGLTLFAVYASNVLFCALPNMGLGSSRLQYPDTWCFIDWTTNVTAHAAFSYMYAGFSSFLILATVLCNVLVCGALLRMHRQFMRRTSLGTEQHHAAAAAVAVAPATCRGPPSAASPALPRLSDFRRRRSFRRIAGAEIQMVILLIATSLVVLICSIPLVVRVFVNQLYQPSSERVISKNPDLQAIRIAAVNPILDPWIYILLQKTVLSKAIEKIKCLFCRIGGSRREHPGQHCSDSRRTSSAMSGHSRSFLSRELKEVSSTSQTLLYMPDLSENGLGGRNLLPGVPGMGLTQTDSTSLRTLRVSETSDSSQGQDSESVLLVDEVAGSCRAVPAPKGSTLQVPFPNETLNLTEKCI

EP1 = details: cited from earlier work
EP2 = EP2 (Homo sapiens, UniProt P43116); details: cited from earlier work
Chain of EP2 (P43116 whole entry): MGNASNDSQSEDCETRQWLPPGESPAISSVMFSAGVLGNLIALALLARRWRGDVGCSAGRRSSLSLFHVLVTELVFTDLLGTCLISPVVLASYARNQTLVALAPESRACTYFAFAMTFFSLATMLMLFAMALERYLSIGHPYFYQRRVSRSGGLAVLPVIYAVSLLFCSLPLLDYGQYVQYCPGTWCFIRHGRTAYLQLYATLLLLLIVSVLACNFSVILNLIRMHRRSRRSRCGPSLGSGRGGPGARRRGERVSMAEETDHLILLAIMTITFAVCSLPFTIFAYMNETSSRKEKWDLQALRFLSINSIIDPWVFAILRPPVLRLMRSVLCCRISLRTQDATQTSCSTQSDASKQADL

EP3 = molecular target: T2, EP3 (Homo sapiens, UniProt P43115); details: cited from earlier work
T2 sequence (P43115 1-390): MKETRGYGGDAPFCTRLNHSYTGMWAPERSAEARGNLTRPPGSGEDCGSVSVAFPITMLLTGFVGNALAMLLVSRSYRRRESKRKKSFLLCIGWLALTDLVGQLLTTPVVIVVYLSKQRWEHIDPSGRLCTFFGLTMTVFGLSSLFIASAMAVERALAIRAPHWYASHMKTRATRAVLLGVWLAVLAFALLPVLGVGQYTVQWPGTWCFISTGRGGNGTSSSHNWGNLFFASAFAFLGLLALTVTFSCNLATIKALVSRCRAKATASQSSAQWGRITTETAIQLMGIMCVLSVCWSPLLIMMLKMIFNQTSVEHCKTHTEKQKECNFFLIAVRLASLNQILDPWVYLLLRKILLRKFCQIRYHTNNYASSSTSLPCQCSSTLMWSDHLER

EP4 receptor = molecular target: T3, EP4 receptor (Homo sapiens, UniProt P35408); experiment: antagonism of PGE2-mediated relaxation of phenylephrine pre-contracted middle cerebral artery rings; format: cell-based; details: 10 mM AH23848, 45 mins; P=0.004
T3 construct: Intact rings of this cerebral artery, 2-3 mm in length, were set up under isometric conditions; from tissue; host or cells: human middle cerebral artery rings (one donor)
T3 sequence (P35408 whole entry): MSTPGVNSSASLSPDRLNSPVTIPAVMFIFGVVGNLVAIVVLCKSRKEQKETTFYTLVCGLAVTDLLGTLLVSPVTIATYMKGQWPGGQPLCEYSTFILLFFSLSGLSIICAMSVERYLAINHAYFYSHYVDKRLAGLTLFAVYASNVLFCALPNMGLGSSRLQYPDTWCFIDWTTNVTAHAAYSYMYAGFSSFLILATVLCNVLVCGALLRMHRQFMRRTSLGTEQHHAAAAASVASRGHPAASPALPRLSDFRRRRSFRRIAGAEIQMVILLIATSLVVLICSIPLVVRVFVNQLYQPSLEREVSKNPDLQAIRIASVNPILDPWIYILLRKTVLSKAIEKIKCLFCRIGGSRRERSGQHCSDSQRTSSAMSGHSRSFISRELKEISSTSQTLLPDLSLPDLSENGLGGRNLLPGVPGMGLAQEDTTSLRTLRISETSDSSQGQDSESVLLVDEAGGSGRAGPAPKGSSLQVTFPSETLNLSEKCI
Protocol: Sections of cerebral artery were removed from different regions of preparations of human cerebral vasculature containing an intact circle of Willis. […] Once a stable contraction had been obtained, tissues were exposed to a range of prostanoid receptor agonists, in the absence or presence of receptor antagonists, to determine the functional role of prostanoid receptors in maintaining arterial tone.
To test the effect of the EP4 receptor antagonist AH23848, cerebral rings were preincubated for 45 mins with 10 mM AH23848.

pulmonary artery = experiment: effect on pre-contracted pulmonary artery rings; format: cell-based, human; details: tone induced with U-46619 10-100 nM; n=3 donors
Protocol: (§1) Rings (2-4 mm internal diameter) were prepared from sections of pulmonary or coronary artery (n=3 each). They were mounted in organ baths under isometric conditions, in gassed Krebs solution (containing indomethacin) at 37° C., and 1-1.5 g initial tone.

coronary artery = experiment: effect on pre-contracted coronary artery rings; format: cell-based, human; details: n=3 donors; for relaxation of coronary artery: tone induced with phenylephrine 1-10 μM or endothelin-1
Protocol: as §1

- effect on smaller diameter cerebral artery rings contracted with phenylephrine, TP receptors blocked [1]: neither compound caused relaxation
Structure (SMILES): CCCCCC(O)c1ccc([C@@H]2CCC(=O)[C@H]2CCCCCCC(=O)O)cc1 (relative stereo) [AH13205, trans-2-(4-[1-hydroxyhexyl]phenyl)-5-oxocyclopentaneheptanoate]

- shift of PGE2-mediated relaxation curve (EP4 receptor): significant rightward shift
Structure (SMILES): O=C(O)CC/C=C\CC[C@@H]1C(N2CCOCC2)C(=O)C[C@@H]1OCc1ccc(-c2ccccc2)cc1 (stereo partly shown) [AH23848]
- pA2 against PGE2-induced relaxation of piglet saphenous vein (EP4 receptors): 5.4
- effect on EP1 receptor subtype (EP1): no effect
- effect on EP2 receptor subtype (EP2): no effect
- effect on EP3 receptor subtype (EP3): no effect

- effect on smaller diameter cerebral artery rings contracted with phenylephrine, TP receptors blocked [1]: without effect
Structure (SMILES): CCCCC[C@H](O)/C=C/[C@H]1C(=O)C[C@H](O)[C@@H]1C/C=C\CCCC(=O)O [PGD2]

- relaxation of cerebral artery rings pre-contracted with U46619 or 5-HT ([1]; U46619 100 nM or 5-HT 300 nM and 1 μM, FIG. 2): maximal or near maximal relaxation
- effect of removal of the endothelium on the relaxant response ([1]; human cerebral arteries): did not affect
- effect on smaller pre-contracted cerebral vessels ([1]; internal diameter <1 mm, pre-contracted with phenylephrine): potent concentration-related relaxation
- effect on larger cerebral vessels ([1]; internal diameter >1 mm): concentration-related contraction
- concentration at which maximum relaxation occurs ([1]; vessel pre-contracted with phenylephrine, FIG. 1): below 10^−6 M
Structure (SMILES): CCCCC[C@H](O)/C=C/[C@H]1[C@H](O)CC(=O)[C@@H]1C/C=C\CCCC(=O)O [PGE2, prostaglandin E2]
- relaxation of pulmonary artery (pulmonary artery): did not cause relaxation
- contraction of coronary artery (coronary artery; pre-contracted preparations): small contraction
- relaxation of coronary artery (coronary artery): did not cause relaxation

Further lines, the compound ahead of its results:

Structure (SMILES): O=C(O)CCC/C=C\C[C@@H]1C(N2CCOCC2)C(=O)C[C@@H]1OCc1ccc(-c2ccccc2)cc1 (stereo partly shown) [AH22921]
- pA2 against PGE2-induced relaxation of piglet saphenous vein (EP4 receptors): 5.3
- effect on EP1 receptor subtype (EP1): no effect
- effect on EP2 receptor subtype (EP2): no effect
- effect on EP3 receptor subtype (EP3): no effect

Structure (SMILES): CCCC1([C@H](O)C/C=C/[C@H]2[C@H](O)CC(=O)[C@@H]2CCCCCCC(=O)OC)CCC1 [Butaprost]
- effect on smaller diameter cerebral artery rings contracted with phenylephrine, TP receptors blocked [1]: neither compound caused relaxation

Structure (SMILES): CC#CCC(C)[C@H](O)/C=C/[C@@H]1[C@H]2C/C(=C/CCCC(=O)O)C[C@H]2C[C@H]1O (stereo partly shown) [Iloprost]
- effect on smaller diameter cerebral artery rings contracted with phenylephrine, TP receptors blocked [1]: induced relaxation

Structure (SMILES): CCCCC[C@H](O)/C=C/[C@@H]1[C@@H](C/C=C\CCCC(=O)O)[C@@H](O)C[C@H]1O [PGF2α]
- effect on smaller diameter cerebral artery rings contracted with phenylephrine, TP receptors blocked [1]: without effect

Structure (SMILES): CCC#CC[C@H](C)[C@H](O)C#C[C@@H]1[C@H]2C/C(=C/COCC(=O)O)C[C@H]2C[C@H]1O [cicaprost]
- effect on smaller diameter cerebral artery rings contracted with phenylephrine, TP receptors blocked [1]: induced relaxation
- relaxation of pulmonary artery (pulmonary artery): induced a relaxation
- relaxation of coronary artery (coronary artery): induced a relaxation
